Assay results as given in US12599672B2, “KRAS proteolysis targeting chimeras” (PAQ Therapeutics Inc., priority 2023, dated 2026).

Legend:
Format in all cases: cell-based
KRAS G12D = molecular target: T1, KRAS G12D (Homo sapiens, UniProt P01116, G12D); test: KRAS G12D HiBit assay; details: AsPc-1-KRAS (G12D)-HiBit-KI cell, compound treatment for 24 hours, absolute DC50
T1 construct: AsPc-1-KRAS (G12D)-HiBit-KI cell (Pharmaron); host or cells: AsPc-1-KRAS (G12D)-HiBit-KI cells (HiBiT knock-in at the endogenous KRAS locus)
Outline: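 HiBiT luminescence, detected by adding lytic buffer, substrate and LgBiT protein, served as the KRAS G12D read-out. Compounds, serially diluted 3-fold over 10 points from 0.3 mM DMSO stock, were on cells for 24 h; percent inhibition normalized to cells given 0.1% DMSO only.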

KRAS = molecular target: T2, KRAS (Homo sapiens, UniProt P01116); test: KRASamp MSD assay; details: KE39 (KRAS amplified) cells, treated with test compounds for 24 hr, MSD readout of KRAS degradation
T2 construct: endogenous in cells; host or cells: KE39 (KRAS amplified) cells
Outline: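 Degradation DC50 derived by curve fitting, with KRAS levels quantified by MSD electrochemiluminescence (capture/detection antibodies, recombinant WT KRAS standard). Lysates prepared from KE39 cells (KRAS amplified) exposed to test compounds for 24 hr.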

KRAS G12V = molecular target: T3, KRAS G12V (Homo sapiens, UniProt P01116, G12V); test: KRAS G12V HiBit assay; details: SW620-KRAS (G12V)-HiBit-KI cells, compound treatment for 24 hours, class symbols
T3 construct: SW620-KRAS (G12V)-HiBit-KI cell (Pharmaron); host or cells: SW620-KRAS (G12V)-HiBit-KI cells (HiBiT knock-in at the endogenous KRAS locus)
Outline: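 Luminescence from lytic Nano-Glo HiBiT detection with LgBiT read KRAS G12V levels after 24 h compound exposure. Dilutions were 10-point, 3-fold, from a 0.3 mM DMSO stock. Degradation activity was normalised to cells given 0.1% DMSO alone.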

[1] = numeric bounds given in place of class symbols

T2 sequence (P01116 1-188 isoform P01116-2): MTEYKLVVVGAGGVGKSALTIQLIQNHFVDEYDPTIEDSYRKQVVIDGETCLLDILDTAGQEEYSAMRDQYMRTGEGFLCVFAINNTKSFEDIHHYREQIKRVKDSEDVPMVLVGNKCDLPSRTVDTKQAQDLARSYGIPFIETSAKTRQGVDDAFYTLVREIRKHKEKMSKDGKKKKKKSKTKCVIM
T1 sequence (P01116 1-188 isoform P01116-2 G12D): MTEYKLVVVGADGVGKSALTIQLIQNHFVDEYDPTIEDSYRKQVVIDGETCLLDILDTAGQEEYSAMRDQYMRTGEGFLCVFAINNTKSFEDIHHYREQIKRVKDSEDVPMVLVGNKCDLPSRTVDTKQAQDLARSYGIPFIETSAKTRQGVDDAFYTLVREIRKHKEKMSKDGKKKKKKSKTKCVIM
T3 sequence (P01116 1-188 isoform P01116-2 G12V): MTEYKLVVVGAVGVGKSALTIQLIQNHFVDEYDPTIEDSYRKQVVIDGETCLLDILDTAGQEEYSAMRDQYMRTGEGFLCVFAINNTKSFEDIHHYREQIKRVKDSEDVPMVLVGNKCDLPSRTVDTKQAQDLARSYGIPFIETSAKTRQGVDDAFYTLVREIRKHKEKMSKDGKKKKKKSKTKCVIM

Compound	DC50 (KRAS G12D; [1]) [nM]	DC50 (KRAS) [nM]	DC50 (KRAS G12V) [nM]	DC50 (KRAS G12D; class symbols) [nM]
C#Cc1c(F)ccc2cc(O)cc(-c3ncc4c(N5CCC[C@@](C)(O)C5)nc(OC[C@@]56CCCN5[C@H](COC(=O)N5CC(N7CCC(N8CCC(c9ccc%10c(c9)n(C)c(=O)n%10C9CCC(=O)NC9=O)CC8)CC7)C5)CC6)nc4c3F)c12 (stereo partly drawn) [Compound 322, ((3S,7aS)-7a-(((7-(8-ethynyl-7-fluoro-3-hydroxynaphthalen-1-yl)-8-fluoro-4-((R)-3-hydroxy-3-methylpiperidin-1-yl)pyrido[4,3-d]pyrimidin-2-yl)oxy)methyl)hexahydro-1H-pyrrolizin-3-yl)methyl 3-(4-(1-(2,6-dioxopiperidin-3-yl)-3-methyl-2-oxo-2,3-dihydro-1H-benzo[d]imidazol-5-yl)-[1,4′-bipiperidin]-1′-yl)azetidine-1-carboxylate]	> 100	≥ 10	> 100	–
C#Cc1c(F)ccc2cc(O)cc(-c3ncc4c(N5CCC[C@@](C)(O)C5)nc(OC[C@@]56CCCN5[C@H](COC(=O)N5CCC7(CC5)CC(CN5CCC(c8ccc9c(c8)n(C)c(=O)n9C8CCC(=O)NC8=O)CC5)C7)CC6)nc4c3F)c12 (stereo partly drawn) [Compound 323, ((3S,7aS)-7a-(((7-(8-ethynyl-7-fluoro-3-hydroxynaphthalen-1-yl)-8-fluoro-4-((R)-3-hydroxy-3-methylpiperidin-1-yl)pyrido[4,3-d]pyrimidin-2-yl)oxy)methyl)hexahydro-1H-pyrrolizin-3-yl)methyl 2-((4-(1-(2,6-dioxopiperidin-3-yl)-3-methyl-2-oxo-2,3-dihydro-1H-benzo[d]imidazol-5-yl)piperidin-1-yl)methyl)-7-azaspiro[3.5]nonane-7-carboxylate]	–	1 to 10	< 10	< 100
C#Cc1c(F)ccc2cc(O)cc(-c3ncc4c(N5CCC[C@@](C)(O)C5)nc(OC[C@@]56CCCN5[C@H](COC(=O)NC5CCN(C7CCN(c8ccc9c(c8)n(C)c(=O)n9C8CCC(=O)NC8=O)CC7)CC5)CC6)nc4c3F)c12 (stereo partly drawn) [Compound 324, ((3S,7aS)-7a-(((7-(8-ethynyl-7-fluoro-3-hydroxynaphthalen-1-yl)-8-fluoro-4-((R)-3-hydroxy-3-methylpiperidin-1-yl)pyrido[4,3-d]pyrimidin-2-yl)oxy)methyl)hexahydro-1H-pyrrolizin-3-yl)methyl (1′-(1-(2,6-dioxopiperidin-3-yl)-3-methyl-2-oxo-2,3-dihydro-1H-benzo[d]imidazol-5-yl)-[1,4′-bipiperidin]-4-yl)carbamate]	> 100	≥ 10	> 100	–
C#Cc1c(F)ccc2cc(O)cc(-c3ncc4c(N5CCC[C@@](C)(O)C5)nc(OC[C@@]56CCCN5[C@H](COC(=O)NC5CN(C7CCN(c8ccc9c(c8)n(C)c(=O)n9C8CCC(=O)NC8=O)CC7)C5)CC6)nc4c3F)c12 (stereo partly drawn) [Compound 325, ((3S,7aS)-7a-(((7-(8-ethynyl-7-fluoro-3-hydroxynaphthalen-1-yl)-8-fluoro-4-((R)-3-hydroxy-3-methylpiperidin-1-yl)pyrido[4,3-d]pyrimidin-2-yl)oxy)methyl)hexahydro-1H-pyrrolizin-3-yl)methyl (1-(1-(1-(2,6-dioxopiperidin-3-yl)-3-methyl-2-oxo-2,3-dihydro-1H-benzo[d]imidazol-5-yl)piperidin-4-yl)azetidin-3-yl)carbamate]	> 100	≥ 10	> 100	–
C#Cc1c(F)ccc2cc(O)cc(-c3ncc4c(N5CCC[C@@](C)(O)C5)nc(OC[C@@]56CCCN5[C@H](COC(=O)N5CCC7(CCC7CN7CCC(c8ccc9c(c8)n(C)c(=O)n9C8CCC(=O)NC8=O)CC7)CC5)CC6)nc4c3F)c12 (stereo partly drawn) [Compound 327, ((3S,7aS)-7a-(((7-(8-ethynyl-7-fluoro-3-hydroxynaphthalen-1-yl)-8-fluoro-4-((R)-3-hydroxy-3-methylpiperidin-1-yl)pyrido[4,3-d]pyrimidin-2-yl)oxy)methyl)hexahydro-1H-pyrrolizin-3-yl)methyl 1-((4-(1-(2,6-dioxopiperidin-3-yl)-3-methyl-2-oxo-2,3-dihydro-1H-benzo[d]imidazol-5-yl)piperidin-1-yl)methyl)-7-azaspiro[3.5]nonane-7-carboxylate]	–	≥ 10	> 100	< 100

Second part, the compound after the results:

DC50 (KRAS G12D; [1]) [nM]	DC50 (KRAS) [nM]	DC50 (KRAS G12V) [nM]	DC50 (KRAS G12D; class symbols) [nM]	Compound
> 100	≥ 10	> 100	–	C#Cc1c(F)ccc2cc(O)cc(-c3ncc4c(N5CCC[C@@](C)(O)C5)nc(OC[C@@]56CCCN5[C@H](COC(=O)N5CCC7(CC5)CCN7C5CCN(c7ccc8c(c7)n(C)c(=O)n8C7CCC(=O)NC7=O)CC5)CC6)nc4c3F)c12 (stereo partly drawn) [Compound 320, ((3S,7aS)-7a-(((7-(8-ethynyl-7-fluoro-3-hydroxynaphthalen-1-yl)-8-fluoro-4-((R)-3-hydroxy-3-methylpiperidin-1-yl)pyrido[4,3-d]pyrimidin-2-yl)oxy)methyl)hexahydro-1H-pyrrolizin-3-yl)methyl 1-(1-(1-(2,6-dioxopiperidin-3-yl)-3-methyl-2-oxo-2,3-dihydro-1H-benzo[d]imidazol-5-yl)piperidin-4-yl)-1,7-diazaspiro[3.5]nonane-7-carboxylate]
–	1 to 10	< 10	< 100	C#Cc1c(F)ccc2cc(O)cc(-c3ncc4c(N5CCC[C@@](C)(O)C5)nc(OC[C@@]56CCCN5[C@H](COC(=O)N5CCC7(CCC(CN8CCC(c9ccc%10c(c9)n(C)c(=O)n%10C9CCC(=O)NC9=O)CC8)CC7)CC5)CC6)nc4c3F)c12 (stereo partly drawn) [Compound 321, ((3S,7aS)-7a-(((7-(8-ethynyl-7-fluoro-3-hydroxynaphthalen-1-yl)-8-fluoro-4-((R)-3-hydroxy-3-methylpiperidin-1-yl)pyrido[4,3-d]pyrimidin-2-yl)oxy)methyl)hexahydro-1H-pyrrolizin-3-yl)methyl 9-((4-(1-(2,6-dioxopiperidin-3-yl)-3-methyl-2-oxo-2,3-dihydro-1H-benzo[d]imidazol-5-yl)piperidin-1-yl)methyl)-3-azaspiro[5.5]undecane-3-carboxylate]
> 100	≥ 10	> 100	–	C#Cc1c(F)ccc2cc(O)cc(-c3ncc4c(N5CCC[C@@](C)(O)C5)nc(OC[C@@]56CCCN5[C@H](COC(=O)N5CCC57CCN(C5CCN(c8ccc9c(c8)n(C)c(=O)n9C8CCC(=O)NC8=O)CC5)CC7)CC6)nc4c3F)c12 (stereo partly drawn) [Compound 326, ((3S,7aS)-7a-(((7-(8-ethynyl-7-fluoro-3-hydroxynaphthalen-1-yl)-8-fluoro-4-((R)-3-hydroxy-3-methylpiperidin-1-yl)pyrido[4,3-d]pyrimidin-2-yl)oxy)methyl)hexahydro-1H-pyrrolizin-3-yl)methyl 7-(1-(1-(2,6-dioxopiperidin-3-yl)-3-methyl-2-oxo-2,3-dihydro-1H-benzo[d]imidazol-5-yl)piperidin-4-yl)-1,7-diazaspiro[3.5]nonane-1-carboxylate]
> 100	≥ 10	> 100	–	C#Cc1c(F)ccc2cc(O)cc(-c3ncc4c(N5CCC[C@@](C)(O)C5)nc(OC[C@@]56CCCN5[C@H](COC(=O)N5CCCC7(C5)CN(C5CCN(c8ccc9c(c8)n(C)c(=O)n9C8CCC(=O)NC8=O)CC5)C7)CC6)nc4c3F)c12 (stereo partly drawn) [Compound 328, ((3S,7aS)-7a-(((7-(8-ethynyl-7-fluoro-3-hydroxynaphthalen-1-yl)-8-fluoro-4-((R)-3-hydroxy-3-methylpiperidin-1-yl)pyrido[4,3-d]pyrimidin-2-yl)oxy)methyl)hexahydro-1H-pyrrolizin-3-yl)methyl 2-(1-(1-(2,6-dioxopiperidin-3-yl)-3-methyl-2-oxo-2,3-dihydro-1H-benzo[d]imidazol-5-yl)piperidin-4-yl)-2,6-diazaspiro[3.5]nonane-6-carboxylate]
> 100	≥ 10	> 100	–	C#Cc1c(F)ccc2cc(O)cc(-c3ncc4c(N5CCC[C@@](C)(O)C5)nc(OC[C@@]56CCCN5[C@H](COC(=O)N5CCCC7(CN(CC8CCN(c9ccc%10c(c9)n(C)c(=O)n%10C9CCC(=O)NC9=O)CC8)C7)C5)CC6)nc4c3F)c12 (stereo partly drawn) [Compound 329, ((3S,7aS)-7a-(((7-(8-ethynyl-7-fluoro-3-hydroxynaphthalen-1-yl)-8-fluoro-4-((R)-3-hydroxy-3-methylpiperidin-1-yl)pyrido[4,3-d]pyrimidin-2-yl)oxy)methyl)hexahydro-1H-pyrrolizin-3-yl)methyl 2-((1-(1-(2,6-dioxopiperidin-3-yl)-3-methyl-2-oxo-2,3-dihydro-1H-benzo[d]imidazol-5-yl)piperidin-4-yl)methyl)-2,6-diazaspiro[3.5]nonane-6-carboxylate]
